The source of these data is patent publication US20260337225A1, “SMALL PEPTIDE AND USE THEREOF IN MUCOSAL REPAIR” (FORREST BIO-PHARM (SHENZHEN) CO., LTD., priority 2022, published 2026).

The test system of this assay is rat model of chronic gastric ulcer. The assay is described as follows: Rat model of chronic gastric ulcer (anhydrous ethanol followed by aspirin). The assay is classed as in vivo. Particulars: omeprazole 2.6 mg/kg twice daily for 3 days. Here is the method:
The function of the small peptides obtained in Embodiment 2 was validated in the present embodiment by using a rat model of chronic gastric ulcer.
Control group (model group): A rat model of chronic gastric ulcer model was constructed by intragastric administration of anhydrous ethanol (1 mL/200 g), followed by intragastric administration of 200 mg/kg aspirin 2 h later. The rats were administered with aspirin once daily for 4 days. At day 5, the rats were administered with an equal volume of saline.
Blank group: The rats were administered with an equal volume of saline.
Drug treatment groups: A rat model of chronic gastric ulcer was constructed as above-mentioned. At day 5, the rats were respectively administered with the rice polypeptide mixture (50 mg/kg), small peptide P1 (0.5 mg/kg), or small peptide P2 (0.5 mg/kg) twice daily for 3 days. On day 4, the rats were sacrificed and their gastric necropsy was performed.
Positive control group (omeprazole 2.6 mg/kg): A rat model of chronic gastric ulcer was constructed as above. At day 5, the rats were administered with omeprazole (2.6 mg/kg) twice daily for 3 days. On day 4, The rats were sacrificed and their gastric necropsy was performed.
Each group consisted of 10 rats. After 24 h of modeling, the rats were sacrificed to extract the gastric tissue, for measuring gastric pH, and observing changes in ulcer area via gastric tissue dissection. Liver and kidney tissues were collected for pathological section observation to assess drug safety.

Consider `COc1ccc2[nH]c([S+]([O-])Cc3ncc(C)c(OC)c3C)nc2c1` (centres unmarked) [omeprazole, reference compound], for which, under “10 rats, ratio of ulcer area to gastric mucosal tissue area, Control group 40.5 ± 5.3”, the Ulcer index turned out to be 7.2 ± 4.1%. The Ulcer inhibition rate (percentage reduction in ulcer area compared to the Control group) amounted to 82.2%.
